Read-outs that look alike come from different tables or passages of the source.
Assays:
SARS-CoV-2 Omicron BA.1 = experiment: microbe, parasite or virus in culture; type: cell-based; settings: for SI (selectivity index): CC50 / EC50 BA.1; for inhibition of SARS-CoV-2 Omicron, dsRNA and nucleocapsids as indicators of viral load: Omicron BA.1, at the concentrations tested; for potency compared with Alotaketal C: dependence on R4 chirality
[1] = Cytotoxicity assay, PrestoBlue cell viability; type: cell-based; settings: human; concentration required to reduce cell viability by 50%, Calu-3 cells, 48-hr incubation
Experimental: Calu-3 cells were seeded with 10^4 cells/well in 96-well plates. Twenty-four hr after seeding media was aspirated and serially diluted compounds (described above) were added for an additional 48-hr. incubation. Cellular viability was assessed with Presto Blue Cell Viability Assay™ (Thermo Fisher Scientific™) according to the manufacturer's instructions. Cells were incubated with 5% PrestoBlue™ reagent for 2 hr before reading on the SpectraMax Gemini™ XS spectrofluorometer (Molecular Devices, LLC.™) set at excitation and emission wavelengths of 555 and 585 nm, respectively. Cellular viability was expressed relative (%) to vehicle-treated cells. Data are from at least three independent experiments.

mNG-SARS-CoV-2 [2] = experiment: in vitro; settings: human
proteins Kinase C (PKC) = settings: Wang 2016; cited from earlier work
SARS-CoV-2 Omicron BA.5 = experiment: microbe, parasite or virus in culture; type: cell-based; settings: Severe acute respiratory syndrome coronavirus 2, Calu-3 cells
SARS-CoV-2 Omicron BA.2 = experiment: microbe, parasite or virus in culture; type: cell-based; settings: Severe acute respiratory syndrome coronavirus 2, Calu-3 cells
mNG-SARS-CoV-2 [3] = experiment: microbe, parasite or virus in culture
SARS-CoV-2 VIDO = SARS-CoV-2 VIDO infection of Calu-3 cells, nucleocapsid and dsRNA staining; type: cell-based; settings: Severe acute respiratory syndrome coronavirus 2, 3 hr pretreatment
[4] = test system: SARS-CoV-2 Delta B.1.617.2; experiment: microbe, parasite or virus in culture; type: cell-based
mNG-SARS-CoV-2 [5] = type: cell-based; settings: Huh7.5.1 cells pretreated 3 hours with serial dilutions
[6] = Severe acute respiratory syndrome coronavirus 2, Calu-3, read-out: EC50 BA.1

Compound: CC(C)=CCC(C)CCCC1CCC[C@]2(C=C(CO)[C@H]3CC(=O)C(C)=C[C@H]3O2)O1 (stereo in doubt) [Compound I10-Cit4, (2S,4aR,6'S,8aR)-6′-(4,7-dimethyloct-6-en-1-yl)-4-(hydroxymethyl)-7-methyl-3′,4a,4′,5′,6′,8a-hexahydrospiro[chromene-2,2′-pyran]-6(5H)-one]
- SARS-COV-2 Activity (SARS-CoV-2 Omicron BA.1): yes
- SI (selectivity index) (SARS-CoV-2 Omicron BA.1): 50872
- inhibition of SARS-CoV-2 Omicron, dsRNA and nucleocapsids as indicators of viral load (SARS-CoV-2 Omicron BA.1; Calu-3 cells): good inhibition
- EC50 (SARS-CoV-2 Omicron BA.1; [6]): 0.25 µM
- CC50 at 48 h [1]: ≥ 12700 µM

Compound: CC(=O)O[C@]1(C)C[C@@H](/C=C(\C)CCC=C(C)C)O[C@@]2(C=C(CO)[C@H]3CC(=O)C(C)=C[C@H]3O2)C1 [Alotaketal C]
- selectivity ratio (mNG-SARS-CoV-2 [2]): 850
- activation of protein kinase C (proteins Kinase C (PKC)): activates
- EC50 (SARS-CoV-2 Omicron BA.5; dsRNA marker, read-out: dsRNA (EC50), Omicron BA.5): 0.7 µM
- EC50 (SARS-CoV-2 Omicron BA.5; nucleocapsid marker, read-out: Nucleocapsid (EC50), Omicron BA.5): 0.3 µM
- EC50 (SARS-CoV-2 Omicron BA.2; dsRNA marker, read-out: dsRNA (EC50), Omicron BA.2): 0.7 µM
- EC50 (SARS-CoV-2 Omicron BA.2; nucleocapsid marker, read-out: Nucleocapsid (EC50), Omicron BA.2): 0.7 µM
- SARS-COV-2 Activity (SARS-CoV-2 Omicron BA.1): yes
- SI (selectivity index) (SARS-CoV-2 Omicron BA.1): 181.8
- EC50 (SARS-CoV-2 Omicron BA.1; [6]): 0.55 µM
- EC50 (SARS-CoV-2 Omicron BA.1; Severe acute respiratory syndrome coronavirus 2, Calu-3 cells, dsRNA marker, read-out: dsRNA (EC50), Omicron BA.1): 0.4 µM
- EC50 (SARS-CoV-2 Omicron BA.1; Severe acute respiratory syndrome coronavirus 2, Calu-3 cells, nucleocapsid marker, read-out: Nucleocapsid (EC50), Omicron BA.1): 0.7 µM
- EC50 (mNG-SARS-CoV-2 [3]; Severe acute respiratory syndrome coronavirus 2, Calu-3, read-out: EC50, inhibition of mNG-SARS-CoV-2 infection): 0.11 µM
- EC50 (mNG-SARS-CoV-2 [3]; Severe acute respiratory syndrome coronavirus 2, Calu-3, read-out: EC50, secondary screening of hits): 0.08 µM
- inhibition at 50 µM (mNG-SARS-CoV-2 [3]; Severe acute respiratory syndrome coronavirus 2, Calu-3, read-out: inhibition of SARS-CoV-2 infection): 90.6%
- CC50 at 48 h [1]: ≥ 100 µM
- EC50 (SARS-CoV-2 VIDO; dsRNA marker, read-out: dsRNA EC50, VIDO): 1.33 µM
- EC50 (SARS-CoV-2 VIDO; nucleocapsid marker, read-out: Nucleocapsid EC50, VIDO): 1.44 µM
- EC50 ([4]; Calu-3 cells, dsRNA marker, read-out: dsRNA (EC50), Delta B.1.617.2): 3.9 µM
- EC50 ([4]; Calu-3 cells, nucleocapsid marker, read-out: Nucleocapsid (EC50), Delta B.1.617.2): 4.9 µM
- EC50 ([4]; Severe acute respiratory syndrome coronavirus 2, Calu-3, Calu-3 cells, dsRNA marker, read-out: dsRNA (EC50), Delta B.1.617.2): 3.96 µM
- EC50 ([4]; Severe acute respiratory syndrome coronavirus 2, Calu-3, Calu-3 cells, nucleocapsid marker, read-out: Nucleocapsid (EC50), Delta B.1.617.2): 4.89 µM

Compound: CC1=C[C@H]2O[C@]3(C=C(CO)[C@H]2CC1=O)CCCCO3 [Compound I10-H, (2S,4aR,8aR)-4-(hydroxymethyl)-7-methyl-3′,4a,4′,5′,6′,8a-hexahydrospiro[chromene-2,2′-pyran]-6(5H)-one]
- SARS-COV-2 Activity (SARS-CoV-2 Omicron BA.1): no
- inhibition of SARS-CoV-2 Omicron, dsRNA and nucleocapsids as indicators of viral load (SARS-CoV-2 Omicron BA.1; Calu-3 cells): no inhibition activity
- potency compared with Alotaketal C (SARS-CoV-2 Omicron BA.1): decreased
- CC50 at 48 h [1]: ≥ 100 µM

Compound: CCCCCCCCCCCC[C@@H]1CCC[C@]2(C=C(CO)[C@H]3CC(=O)C(C)=C[C@H]3O2)O1 [Compound I10-DD2, (2S,4aR,6′R,8aR)-4-(hydroxymethyl)-7-methyl-6′-dodecyl-3′,4a,4′,5′,6′,8a-hexahydrospiro[chromene-2,2′-pyran]-6(5H)-one]
- SARS-COV-2 Activity (SARS-CoV-2 Omicron BA.1): yes
- SI (selectivity index) (SARS-CoV-2 Omicron BA.1): 56.7
- inhibition of SARS-CoV-2 Omicron, dsRNA and nucleocapsids as indicators of viral load (SARS-CoV-2 Omicron BA.1; Calu-3 cells): good inhibition
- EC50 (SARS-CoV-2 Omicron BA.1; [6]): 2 µM
- CC50 at 48 h [1]: ≥ 113 µM

Compound: CC(C)=CCC(C)CCCC1CCC[C@]2(C=C(CO)[C@H]3CC(=O)C(C)=C[C@H]3O2)O1 (stereo in doubt) [Compound I10-Cit3, (2S,4aR,6′R,8aR)-6′-(4,7-dimethyloct-6-en-1-yl)-4-(hydroxymethyl)-7-methyl-3′,4a,4′,5′,6′,8a-hexahydrospiro[chromene-2,2′-pyran]-6(5H)-one]
- SARS-COV-2 Activity (SARS-CoV-2 Omicron BA.1): no
- inhibition of SARS-CoV-2 Omicron, dsRNA and nucleocapsids as indicators of viral load (SARS-CoV-2 Omicron BA.1; Calu-3 cells): no inhibition activity
- potency compared with Alotaketal C (SARS-CoV-2 Omicron BA.1): decreased
- CC50 at 48 h [1]: ≥ 100 µM

Compound: CCCCCCCC[C@@H]1CCC[C@]2(C=C(CO)[C@H]3CC(=O)C(C)=C[C@H]3O2)O1 [Compound I10-Oct, (2S,4aR,6′R,8aR)-4-(hydroxymethyl)-7-methyl-6′-octyl-3′,4a,4′,5′,6′,8a-hexahydrospiro[chromene-2,2′-pyran]-6(5H)-one]
- SARS-COV-2 Activity (SARS-CoV-2 Omicron BA.1): yes
- SI (selectivity index) (SARS-CoV-2 Omicron BA.1): 100.6
- inhibition of SARS-CoV-2 Omicron, dsRNA and nucleocapsids as indicators of viral load (SARS-CoV-2 Omicron BA.1; Calu-3 cells): good inhibition
- EC50 (SARS-CoV-2 Omicron BA.1; [6]): 1 µM
- CC50 at 48 h [1]: ≥ 101 µM

Compound: CCCCCCCCCC[C@H]1CCC[C@]2(C=C(CO)[C@H]3CC(=O)C(C)=C[C@H]3O2)O1 [Compound I10-Dec01, (2S,4aR,6'S,8aR)-4-(hydroxymethyl)-7-methyl-6′-decyl-3′,4a,4′,5′,6′,8a-hexahydrospiro[chromene-2,2′-pyran]-6(5H)-one]
- SARS-COV-2 Activity (SARS-CoV-2 Omicron BA.1): no
- inhibition of SARS-CoV-2 Omicron, dsRNA and nucleocapsids as indicators of viral load (SARS-CoV-2 Omicron BA.1; Calu-3 cells): no inhibition activity
- potency compared with Alotaketal C (SARS-CoV-2 Omicron BA.1): decreased
- CC50 at 48 h [1]: ≥ 339 µM

Compound: CCCCCCCCCC[C@@H]1CCC[C@]2(C=C(CO)[C@H]3CC(=O)C(C)=C[C@H]3O2)O1 [Compound I10-Dec02, (2S,4aR,6′R,8aR)-4-(hydroxymethyl)-7-methyl-6′-decyl-3′,4a,4′,5′,6′,8a-hexahydrospiro [chromene-2, 2′-pyran]-6 (5H)-one]
- SARS-COV-2 Activity (SARS-CoV-2 Omicron BA.1): yes
- SI (selectivity index) (SARS-CoV-2 Omicron BA.1): 297.2
- inhibition of SARS-CoV-2 Omicron, dsRNA and nucleocapsids as indicators of viral load (SARS-CoV-2 Omicron BA.1; Calu-3 cells): good inhibition
- EC50 (SARS-CoV-2 Omicron BA.1; [6]): 0.25 µM
- CC50 at 48 h [1]: 74.3 µM

Compound: CC(C)C[C@H](NC(=O)OCc1ccccc1)C(=O)N[C@@H](C[C@@H]1CCNC1=O)C(O)S(=O)(=O)[O-].[Na+] (stereo partly drawn) [GC376]
- reduction of mNG-SARS-CoV-2 infection (mNG-SARS-CoV-2 [5]): dose-dependent reduction

Reference: US20250195464A1, “ALOTAKETAL COMPOUNDS AND DERIVATIVES THEREOF FOR USE AS ANTIVIRAL AGENTS” (priority 2022, published 2025)
